Legend:
NK cells (CD3^-CD56^+) = assay: NK cell numbers, viability and apoptosis in PBMCs (flow cytometry, DiOC6(3)/PI staining); format: cell-based, human
Protocol: To evaluate absolute cell numbers, an equal volume of PKH26 reference microbeads (Sigma-Aldrich) was added to each sample after staining for immune subset identification. Microbeads (5x10^3) were acquired by flow cytometry and absolute numbers of each immune population within the sample were calculated. Normalized percentage values were calculated considering the control (DMSO)-treated cells as 100%.
Cell viability and apoptosis were evaluated by double-staining with the mitochondrial inner transmembrane potential (ΔΨm)-sensitive dye DiOC6(3) (3,3'-dihexyloxacarbocyanine iodide; Sigma-Aldrich) and the exclusion dye propidium iodide (PI; Immunostep), allowing identification of apoptotic [DiOC6(3)^low PI^-] and dead [PI^+] cells as per Proc. Natl. Acad. Sci. U.S.A. (2014) 111(8):3020-3025 and Methods Mol. Biol. (2016) 1419:1-16. Briefly, PBMCs were resuspended in culture medium containing 20 nM DiOC6(3) and incubated for 30 minutes at 37 °C. Then, PI (1 µg/mL) was added and cells were further incubated for 10 minutes at room temperature (RT). Cells were analyzed by flow cytometry considering DiOC6(3)^+PI^- cells as viable. In some experiments, apoptosis was evaluated by staining with Annexin V/PI. Thus, PBMCs were incubated in Annexin V binding buffer containing 5 µg/mL Annexin V-FITC (Biolegend) for 15 minutes at RT and PI (1 µg/mL) was subsequently added. Data were normalized to the untreated control as a percentage. Only samples with at least 60% of viable cells (DiOC6(3)^+; Annexin V^-) in the control (DMSO) condition were employed in this study.
The effect of EC-7072 toward healthy immune subsets, T lymphocytes and natural killer (NK) cells, which are chronically exposed to leukemia cells in the peripheral blood of patients with CLL was assessed by: • (i) incubating PBMCs isolated from patients with CLL (n = 10) following treatment with increasing concentrations of EC-7072 (0 - 400 nM) for 24 hours. Numbers of T cells (CD3^+CD56^-) (Figure 2A) and NK cells (CD3^-CD56^+) (Figure 2B) were evaluated by flow cytometry and normalized to their respective control (DMSO) condition for each individual patient to obtain percentage of relative number of T cells and NK cells, respectively; • (ii) incubating PBMCs isolated from patients with CLL (n = 6 - 10) following treatment with increasing concentrations of EC-7072 (0 - 400 nM) for 24 hours. Viability of immune subsets (leukemia cells, T cells and NK cells) was determined by cytofluorometric assessment of DiOC6(3)/PI staining and normalized to their respective control (DMSO) condition for each individual patient to obtain percentage of viable [DiOC6(3)^+] cells (Figures 2C and 2D); • (iii) incubating PBMCs isolated from patients with CLL (n = 11) following treatment with DMSO or EC-7072 (200 nM) for 24 hours. Numbers of CD4^+ cells (Figure 2E) and CD8^+ T cells (Figure 2F) were evaluated by flow cytometry and normalized to their respective control (DMSO) condition for each individual experiment; • (iv) incubating PBMCs isolated from healthy donors (n = 15) following treatment with EC-7072 (200 nM) for 24 hours. […]

HK-2 cells = assay: Cell death of HK-2 cells by PI staining; format: cell-based, human; settings: 200 nM, 24 hours; n = 3
Protocol: Effectiveness of EC-7072 against different B-cell malignancies was assessed by; • (i) incubating primary fibroblasts from healthy donors (n = 4) and HK-2 cells from healthy human adult kidney (n = 3) following treatment with MTA (200 nM) or EC-7072 (200 nM) for 24 hours. Cell death was evaluated by PI staining to obtain the percentages corresponding to the [PI^+] subset (Figure 5A) and the mean percentage of [PI^+] cells (Figure 5B); • (ii) treating MEC-1, GRANTA-519, Z-138, JVM-2, CA-46, Ramos, Raji and U266 cell lines (n = 3) following treatment with EC-7072 (500 nM) followed by incubation for 24 hours. Cell viability was assessed by DiOC6(3)/PI staining and normalized to control (DMSO) condition to obtain mean percentage of viable [DiOC6(3)^+] cells (Figure 5C).

## CO[C@@H]([C@@H]1Cc2cc3cc(O[C@H]4C[C@@H](O[C@H]5C[C@@H](O)[C@H](O)[C@@H](C)O5)[C@H](O)[C@@H](C)O4)c(C)c(O)c3c(O)c2C(=O)[C@H]1O[C@H]1C[C@@H](O[C@H]2C[C@@H](O[C@H]3C[C@](C)(O)[C@H](O)[C@@H](C)O3)[C@@H](O)[C@@H](C)O2)[C@H](O)[C@@H](C)O1)[C@@H](O)C(C)=O [EC-7072, mithramycin SK]
NK cells (CD3^-CD56^+); 200 nM, 24 hours, PBMCs from healthy donors (n = 4), Figure 2R
  ratio of apoptosis in NK cells relative to NK cell death: far lower ratio of apoptosis in NK cells relative to NK cell death than does EC-7073
NK cells (CD3^-CD56^+); 200 nM, 24 hours, PBMCs from healthy donors (n = 10), Figure 2O
  viability of NK cells, comparison of mithralogs: not exhibit toxicity
NK cells (CD3^-CD56^+); 200 nM, 24 hours, PBMCs from healthy donors (n = 15), compared with PBMCs from patients with CLL
  cell numbers and viability of NK cells: comparable effects
NK cells (CD3^-CD56^+); 200 nM, 24 hours, PBMCs from patients with CLL
  NK cell survival: only slightly altered
NK cells (CD3^-CD56^+); EC-7072 200 nM 24 hours vs fludarabine 10 µM 24 hours, PBMCs from patients with CLL (n = 6 - 8), Figure 4F
  toxicity against NK cells compared with fludarabine: significantly less toxic than fludarabine
NK cells (CD3^-CD56^+); high doses (400 nM), 24 hours, PBMCs from patients with CLL
  toxicity against NK cells compared with leukemia cells: significantly less toxic against NK cells than leukemia cells
HK-2 cells
  viability of HK-2 cells (PI^+ cells): did not markedly affect the viability
